From article PMC5218480 (PLoS ONE, 2017)

Test system: MV-4-11 cells
Assay: Gene expression microarray analysis (Affymetrix PrimeView) and GSEA
Assay type: cell-based, human
Design: RFU PODN (11730768_x_at) / Fold change /veh PODN (11730768_x_at) / RFU LINC00158 (11744669_a_at) / Fold change /veh LINC00158 (11744669_a_at) / RFU DUSP10 (11751237_a_at) / Fold change /veh DUSP10 (11751237_a_at) / RFU ID3 (11757404_x_at) / Fold change /veh ID3 (11757404_x_at) / RFU PLEKHG5 (11737974_s_at) / Fold change /veh PLEKHG5 (11737974_s_at) / RFU LRRC4B (11730491_at) / Fold change /veh LRRC4B (11730491_at) / RFU GIMAP4 (11747438_a_at) / Fold change /veh GIMAP4 (11747438_a_at) / RFU KRT8 (11758183_x_at) / Fold change /veh KRT8 (11758183_x_at) / RFU CNN1 (11734310_a_at) / Fold change /veh CNN1 (11734310_a_at) / RFU VPS37D (11726825_at) / Fold change /veh VPS37D (11726825_at) / RFU C10orf10 (11716522_x_at) / Fold change /veh C10orf10 (11716522_x_at) / RFU KIR2DL2 /// KIR2DL4 /// KIR2DL5A /// KIR2DL5B /// KIR2DS1 /// KIR2DS2 /// KIR2DS3 /// KIR2DS4 /// KIR3DL3 /// KIR3DL3 /// KIR3DS1 (11738374_at) / Fold change /veh KIR2DL2 /// KIR2DL4 /// KIR2DL5A /// KIR2DL5B /// KIR2DS1 /// KIR2DS2 /// KIR2DS3 /// KIR2DS4 /// KIR3DL3 /// KIR3DL3 /// KIR3DS1 (11738374_at) / RFU C1QL1 (11718748_at) / Fold change /veh C1QL1 (11718748_at) / RFU TMPRSS4 (11747572_a_at) / Fold change /veh TMPRSS4 (11747572_a_at) / RFU HAMP (11756126_x_at) / Fold change /veh HAMP (11756126_x_at) / RFU RNFT2 (11725882_a_at) / Fold change /veh RNFT2 (11725882_a_at) / RFU NR4A2 (11747474_a_at) / Fold change /veh NR4A2 (11747474_a_at) / RFU ABCC12 (11746883_a_at) / Fold change /veh ABCC12 (11746883_a_at) / RFU TMEM136 (11760407_x_at) / Fold change /veh TMEM136 (11760407_x_at) / RFU CLDN22 /// WWC2 (11732394_at) / Fold change /veh CLDN22 /// WWC2 (11732394_at) / RFU HLA-DPB1 (11760878_x_at) / Fold change /veh HLA-DPB1 (11760878_x_at) / RFU SPINT1 (11716480_a_at) / Fold change /veh SPINT1 (11716480_a_at) / RFU GAP43 (11754022_s_at) / Fold change /veh GAP43 (11754022_s_at) / RFU A4GNT (11735810_at) / Fold change /veh A4GNT (11735810_at) / RFU PRB3 (11715151_x_at) / Fold change /veh PRB3 (11715151_x_at) / RFU TUBB4B (11761932_at) / Fold change /veh TUBB4B (11761932_at) / RFU CAPN14 (11732068_a_at) / Fold change /veh CAPN14 (11732068_a_at) / RFU TMCC2 (11721928_a_at) / Fold change /veh TMCC2 (11721928_a_at) / RFU IRGQ (11745062_a_at) / Fold change /veh IRGQ (11745062_a_at) / RFU FAM174B (11720279_a_at) / Fold change /veh FAM174B (11720279_a_at) / RFU TMPRSS4 (11748680_a_at) / Fold change /veh TMPRSS4 (11748680_a_at) / RFU FAM212B (11763350_a_at) / Fold change /veh FAM212B (11763350_a_at) / RFU PLEKHG5 (11743358_a_at) / Fold change /veh PLEKHG5 (11743358_a_at) / RFU ZSCAN30 (11745921_a_at) / Fold change /veh ZSCAN30 (11745921_a_at) / RFU CMKLR1 (11741424_a_at) / Fold change /veh CMKLR1 (11741424_a_at) / RFU LOC101060620 /// MAPK8IP1 (11723275_at) / Fold change /veh LOC101060620 /// MAPK8IP1 (11723275_at) / RFU SPTSSB (11747773_x_at) / Fold change /veh SPTSSB (11747773_x_at) / RFU PRSS12 (11739890_at) / Fold change /veh PRSS12 (11739890_at) / RFU BIN1 (11741810_x_at) / Fold change /veh BIN1 (11741810_x_at) / RFU WNT11 (11732464_a_at) / Fold change /veh WNT11 (11732464_a_at) / RFU C10orf10 (11716521_a_at) / Fold change /veh C10orf10 (11716521_a_at) / RFU C5orf56 (11738089_at) / Fold change /veh C5orf56 (11738089_at) / RFU CYB561 (11721691_x_at) / Fold change /veh CYB561 (11721691_x_at) / RFU ANKRD19P (11752326_a_at) / Fold change /veh ANKRD19P (11752326_a_at) / RFU OR2T12 /// OR2T33 /// OR2T8 (11738714_s_at) / Fold change /veh OR2T12 /// OR2T33 /// OR2T8 (11738714_s_at) / RFU VCAN (11748164_a_at) / Fold change /veh VCAN (11748164_a_at) / RFU JSRP1 (11732532_at) / Fold change /veh JSRP1 (11732532_at) / RFU KRTAP10-11 (11738290_x_at) / Fold change /veh KRTAP10-11 (11738290_x_at) / RFU MYO3A (11730013_a_at) / Fold change /veh MYO3A (11730013_a_at) / RFU EBF3 (11725865_a_at) / Fold change /veh EBF3 (11725865_a_at) / RFU CAMK2N1 (11719241_x_at) / Fold change /veh CAMK2N1 (11719241_x_at) / RFU C5orf56 (11738088_a_at) / Fold change /veh C5orf56 (11738088_a_at) / RFU OLFML3 (11715873_a_at) / Fold change /veh OLFML3 (11715873_a_at) / RFU LOC100653217 /// NTM (11731650_a_at) / Fold change /veh LOC100653217 /// NTM (11731650_a_at) / RFU MAPK11 (11762145_a_at) / Fold change /veh MAPK11 (11762145_a_at) / RFU FIZ1 (11724087_x_at) / Fold change /veh FIZ1 (11724087_x_at) / RFU OASL (11726364_x_at) / Fold change /veh OASL (11726364_x_at) / RFU SOX15 (11748057_x_at) / Fold change /veh SOX15 (11748057_x_at) / RFU CD79A (11719716_a_at) / Fold change /veh CD79A (11719716_a_at) / RFU HIST1H1D (11736915_at) / Fold change /veh HIST1H1D (11736915_at) / RFU CASKIN2 (11723855_a_at) / Fold change /veh CASKIN2 (11723855_a_at) / RFU LOC730098 (11760151_x_at) / Fold change /veh LOC730098 (11760151_x_at) / RFU OR4N2 (11742367_at) / Fold change /veh OR4N2 (11742367_at) / RFU PRRT2 (11749266_a_at) / Fold change /veh PRRT2 (11749266_a_at) / RFU SNX32 (11753110_a_at) / Fold change /veh SNX32 (11753110_a_at) / RFU CDHR5 (11726645_a_at) / Fold change /veh CDHR5 (11726645_a_at) / RFU RCAN1 (11760418_a_at) / Fold change /veh RCAN1 (11760418_a_at) / RFU FAM167A (11723789_a_at) / Fold change /veh FAM167A (11723789_a_at) / RFU FAM26E (11764081_at) / Fold change /veh FAM26E (11764081_at) / RFU ISYNA1 (11749810_s_at) / Fold change /veh ISYNA1 (11749810_s_at) / RFU ACY1 (11761880_at) / Fold change /veh ACY1 (11761880_at) / RFU 11764098_at / Fold change /veh 11764098_at / RFU SAMD14 (11745864_x_at) / Fold change /veh SAMD14 (11745864_x_at) / RFU NPB (11741838_a_at) / Fold change /veh NPB (11741838_a_at) / RFU TMPRSS6 (11731388_a_at) / Fold change /veh TMPRSS6 (11731388_a_at) / RFU KRTAP10-2 (11738614_at) / Fold change /veh KRTAP10-2 (11738614_at) / RFU ARHGAP8 /// PRR5-ARHGAP8 (11727945_x_at) / Fold change /veh ARHGAP8 /// PRR5-ARHGAP8 (11727945_x_at) / RFU KRTAP5-7 /// NADSYN1 (11734609_at) / Fold change /veh KRTAP5-7 /// NADSYN1 (11734609_at) / RFU RASL12 (11751679_a_at) / Fold change /veh RASL12 (11751679_a_at) / RFU CDKN2B (11736163_a_at) / Fold change /veh CDKN2B (11736163_a_at) / RFU PRF1 (11729649_at) / Fold change /veh PRF1 (11729649_at) / RFU, ZNF638 /// ZNF638-IT1 / Fold change vs veh, ZNF638 /// ZNF638-IT1 / RFU, PANK3 / Fold change vs veh, PANK3 / RFU, SH3YL1 / Fold change vs veh, SH3YL1 / RFU, ZEB2 / Fold change vs veh, ZEB2 / RFU, NRIP1 / Fold change vs veh, NRIP1 / RFU, PTTG1IP / Fold change vs veh, PTTG1IP / RFU, CAPN2 / Fold change vs veh, CAPN2 / RFU, MED14 / Fold change vs veh, MED14 / RFU, SNORA58 / Fold change vs veh, SNORA58 / RFU, C1orf63 / Fold change vs veh, C1orf63 / RFU, LRRFIP1 / Fold change vs veh, LRRFIP1 / RFU, NDUFAF7 / Fold change vs veh, NDUFAF7 / RFU, SLC12A2 / Fold change vs veh, SLC12A2 / RFU, IBTK / Fold change vs veh, IBTK / RFU, ESF1 / Fold change vs veh, ESF1 / Fold change vs veh, TMEM50B / RFU, TAOK1 / Fold change vs veh, TAOK1 / RFU, ACBD3 / Fold change vs veh, ACBD3 / RFU, TMA16 / Fold change vs veh, TMA16 / RFU, RWDD3 / Fold change vs veh, RWDD3 / RFU, BCAT1 / Fold change vs veh, BCAT1 / RFU, EDEM3 / Fold change vs veh, EDEM3 / RFU, TMEM33 / Fold change vs veh, TMEM33 / RFU, WDR75 / Fold change vs veh, WDR75 / RFU, AHCTF1 / Fold change vs veh, AHCTF1 / RFU, TFRC / Fold change vs veh, TFRC / RFU, ZDHHC17 / Fold change vs veh, ZDHHC17 / RFU, NOM1 / Fold change vs veh, NOM1 / RFU, ARL8B / Fold change vs veh, ARL8B / RFU, ZBTB11 / Fold change vs veh, ZBTB11 / RFU, TAMM41 / Fold change vs veh, TAMM41 / RFU, KIAA1704 /// LOC100996395 / Fold change vs veh, KIAA1704 /// LOC100996395 / RFU, ING1 / Fold change vs veh, ING1 / RFU, TRMT61B / Fold change vs veh, TRMT61B / RFU, FUBP3 / Fold change vs veh, FUBP3 / RFU, TP53 / Fold change vs veh, TP53 / RFU, TNKS2 / Fold change vs veh, TNKS2 / RFU, ZFP14 / Fold change vs veh, ZFP14 / RFU, ACTR2 / Fold change vs veh, ACTR2 / RFU, PPP3R1 / Fold change vs veh, PPP3R1 / RFU, PIK3R1 / Fold change vs veh, PIK3R1 / RFU, HNRNPA1 / Fold change vs veh, HNRNPA1 / RFU, RNF170 / Fold change vs veh, RNF170 / RFU, ZNF28 / Fold change vs veh, ZNF28 / RFU, RNGTT / Fold change vs veh, RNGTT / RFU, OGT / Fold change vs veh, OGT / RFU, BRD1 / Fold change vs veh, BRD1 / RFU, MARS / Fold change vs veh, MARS / RFU, ZNF655 / Fold change vs veh, ZNF655 / RFU, FAHD1 / Fold change vs veh, FAHD1 / RFU, BDP1 / Fold change vs veh, BDP1 / RFU, LRRCC1 / Fold change vs veh, LRRCC1 / RFU, ARID1A / Fold change vs veh, ARID1A / RFU, ZNF146 / Fold change vs veh, ZNF146 / RFU, ZNF330 / Fold change vs veh, ZNF330 / RFU, GPN3 / Fold change vs veh, GPN3 / RFU, C9orf123 / Fold change vs veh, C9orf123 / RFU, N4BP2L2 / Fold change vs veh, N4BP2L2 / RFU, ARFIP1 / Fold change vs veh, ARFIP1 / RFU, FAM179B / Fold change vs veh, FAM179B / RFU, BCL10 / Fold change vs veh, BCL10 / RFU, UHRF1BP1L / Fold change vs veh, UHRF1BP1L / RFU, BET1 / Fold change vs veh, BET1 / RFU, CNOT2 / Fold change vs veh, CNOT2 / RFU, ZNF268 / Fold change vs veh, ZNF268 / Fold change vs veh, ZNF507 / RFU, DGCR2 / Fold change vs veh, DGCR2 / RFU, WDSUB1 / Fold change vs veh, WDSUB1 / Fold change vs veh, HSP90B1 /// MIR3652 / RFU, ADSS / Fold change vs veh, ADSS / RFU, GK / Fold change vs veh, GK / RFU, ZNF148 / Fold change vs veh, ZNF148 / RFU, TAF9 / Fold change vs veh, TAF9 / RFU, SLC1A5 / Fold change vs veh, SLC1A5 / RFU, SLMO2 / Fold change vs veh, SLMO2 / RFU, ABCC4 / Fold change vs veh, ABCC4 / RFU, LOC101060439 /// RAP1B / Fold change vs veh, LOC101060439 /// RAP1B / RFU, RFX7 / Fold change vs veh, RFX7 / RFU, GTPBP10 / Fold change vs veh, GTPBP10 / RFU, CNEP1R1 / Fold change vs veh, CNEP1R1 / RFU, BIVM-ERCC5 /// ERCC5 / Fold change vs veh, BIVM-ERCC5 /// ERCC5 / RFU, ILF3 / Fold change vs veh, ILF3 / RFU 11762660_at / Fold change /veh 11762660_at / RFU VCAN (11757783_s_at) / Fold change /veh VCAN (11757783_s_at) / RFU DDX43 (11728927_at) / Fold change /veh DDX43 (11728927_at) / RFU KRT8 (11758188_x_at) / Fold change /veh KRT8 (11758188_x_at) / RFU NKD1 (11759106_at) / Fold change /veh NKD1 (11759106_at) / RFU SRD5A1 (11742802_a_at) / Fold change /veh SRD5A1 (11742802_a_at) / RFU TPSAB1 /// TPSB2 (11721975_s_at) / Fold change /veh TPSAB1 /// TPSB2 (11721975_s_at) / RFU GSTM3 (11746129_a_at) / Fold change /veh GSTM3 (11746129_a_at) / RFU IL23R (11737362_x_at) / Fold change /veh IL23R (11737362_x_at) / RFU TMEM51 (11727254_a_at) / Fold change /veh TMEM51 (11727254_a_at) / RFU PIWIL2 (11732686_x_at) / Fold change /veh PIWIL2 (11732686_x_at) / RFU ORM1 (11744905_x_at) / Fold change /veh ORM1 (11744905_x_at) / RFU CCDC152 (11743942_at) / Fold change /veh CCDC152 (11743942_at) / RFU ECM1 (11717891_a_at) / Fold change /veh ECM1 (11717891_a_at) / RFU IL23R (11748794_a_at) / Fold change /veh IL23R (11748794_a_at) / RFU TNFAIP8L3 (11732012_x_at) / Fold change /veh TNFAIP8L3 (11732012_x_at) / RFU MBOAT4 (11741988_at) / Fold change /veh MBOAT4 (11741988_at) / RFU 11764193_at / Fold change /veh 11764193_at / RFU TMEM53 (11763286_at) / Fold change /veh TMEM53 (11763286_at) / RFU MAGEB2 (11727129_at) / Fold change /veh MAGEB2 (11727129_at) / RFU TMEM200A (11744735_a_at) / Fold change /veh TMEM200A (11744735_a_at) / RFU CCDC152 (11751479_a_at) / Fold change /veh CCDC152 (11751479_a_at) / RFU FAM211A (11726209_a_at) / Fold change /veh FAM211A (11726209_a_at) / RFU RGS16 (11746705_a_at) / Fold change /veh RGS16 (11746705_a_at) / RFU VCAN (11755009_s_at) / Fold change /veh VCAN (11755009_s_at) / RFU RHOB (11743442_s_at) / Fold change /veh RHOB (11743442_s_at) / RFU RGS16 (11720943_a_at) / Fold change /veh RGS16 (11720943_a_at) / RFU RGS16 (11720944_at) / Fold change /veh RGS16 (11720944_at) / RFU, VPS4B / Fold change vs veh, VPS4B / RFU, CREB1 / Fold change vs veh, CREB1 / RFU, DNAJC13 / Fold change vs veh, DNAJC13 / RFU, GNAQ / Fold change vs veh, GNAQ / RFU, CDK5R1 / Fold change vs veh, CDK5R1 / RFU, ZRANB3 / Fold change vs veh, ZRANB3 / RFU, CUL4A / Fold change vs veh, CUL4A / RFU, CCNY / Fold change vs veh, CCNY / RFU, UFL1 / Fold change vs veh, UFL1 / RFU, COG3 / Fold change vs veh, COG3 / RFU, DIAPH2 / Fold change vs veh, DIAPH2 / RFU, SKA2 / Fold change vs veh, SKA2 / RFU, AFF3 / Fold change vs veh, AFF3 / RFU, LMF1 / Fold change vs veh, LMF1 / RFU, IPO11 / Fold change vs veh, IPO11 / RFU, DFFB / Fold change vs veh, DFFB / RFU, FOXP1 / Fold change vs veh, FOXP1 / RFU, CARD8 / Fold change vs veh, CARD8 / RFU, STRN3 / Fold change vs veh, STRN3 / RFU, ADK / Fold change vs veh, ADK / RFU, RASSF2 / Fold change vs veh, RASSF2 / RFU, WIPF1 / Fold change vs veh, WIPF1 / RFU, LARP1B / Fold change vs veh, LARP1B / RFU, RASA1 / Fold change vs veh, RASA1 / RFU, RB1 / Fold change vs veh, RB1 / RFU, PPFIA1 / Fold change vs veh, PPFIA1 / RFU, MAT2A / Fold change vs veh, MAT2A / RFU, CCT5 / Fold change vs veh, CCT5 / RFU, WDR92 / Fold change vs veh, WDR92 / RFU, CUX1 / Fold change vs veh, CUX1 / RFU, TTC7A / Fold change vs veh, TTC7A / RFU, TMEM135 / Fold change vs veh, TMEM135 / RFU, DEPTOR / Fold change vs veh, DEPTOR / RFU, CPM / Fold change vs veh, CPM / RFU, DNAJB6 / Fold change vs veh, DNAJB6 / RFU, CACNA2D3 / Fold change vs veh, CACNA2D3 / RFU, DTX4 / Fold change vs veh, DTX4 / RFU, TFCP2 / Fold change vs veh, TFCP2 / RFU, GMCL1 /// GMCL1P1 / Fold change vs veh, GMCL1 /// GMCL1P1 / RFU, AEBP2 / Fold change vs veh, AEBP2 / RFU, SNHG1 /// SNORD22 /// SNORD25 /// SNORD26 /// SNORD27 /// SNORD28 /// SNORD29 /// SNORD31 / Fold change vs veh, SNHG1 /// SNORD22 /// SNORD25 /// SNORD26 /// SNORD27 /// SNORD28 /// SNORD29 /// SNORD31 / Fold change (Aza/veh), C12orf56 (ProbeSet 11735607_a_at) / Fold change (ACY-1035/veh), C12orf56 (ProbeSet 11735607_a_at) / Fold change (Aza/veh), FGFR1OP (ProbeSet 11751329_s_at) / Fold change (ACY-1035/veh), FGFR1OP (ProbeSet 11751329_s_at) / Fold change (Aza/veh), VPS36 (ProbeSet 11739960_a_at) / Fold change (ACY-1035/veh), VPS36 (ProbeSet 11739960_a_at) / RFU SYPL1 (11715823_x_at) / Fold change /veh SYPL1 (11715823_x_at) / RFU IGFBP7 (11715501_s_at) / Fold change /veh IGFBP7 (11715501_s_at) / RFU REEP3 (11722064_at) / Fold change /veh REEP3 (11722064_at) / RFU IGLL1 (11728026_x_at) / Fold change /veh IGLL1 (11728026_x_at): dose or concentration left out as unconfirmed
Conditions: ProbeSet 11724877_a_at; LIST D

Nc1ccc(-c2cccs2)cc1NC(=O)c1ccc2c(c1)cc(C1CC1)n2CCN1CCOCC1 [ACY-1035]
Fold change vs veh, AEBP2: 1.03
